Measured values taken from patent US20210315893A1 (Galapagos NV, priority 2017, published 2021).

What was measured:
HFL-1 cells [1] = assay: IL8 assay in the presence of Human Serum Albumin; conditions: HFL1, read-out: HSA IL8 EC50
[2] = molecular target: T1, human GPCR sphingosine 1-phosphate receptor 1 (Homo sapiens, UniProt P21453); assay: S1PR1 selectivity Ca2+ flux assay (antagonist readout); type: cell-based; conditions: antagonist readout, CHO cells overexpressing human S1PR1 and Gq, S1P at EC80 (6 nM); read-out: S1P1 EC50 (nM), S1P1 antagonist EC50
T1 construct: host or cells: CHO
T1 sequence (P21453 whole entry): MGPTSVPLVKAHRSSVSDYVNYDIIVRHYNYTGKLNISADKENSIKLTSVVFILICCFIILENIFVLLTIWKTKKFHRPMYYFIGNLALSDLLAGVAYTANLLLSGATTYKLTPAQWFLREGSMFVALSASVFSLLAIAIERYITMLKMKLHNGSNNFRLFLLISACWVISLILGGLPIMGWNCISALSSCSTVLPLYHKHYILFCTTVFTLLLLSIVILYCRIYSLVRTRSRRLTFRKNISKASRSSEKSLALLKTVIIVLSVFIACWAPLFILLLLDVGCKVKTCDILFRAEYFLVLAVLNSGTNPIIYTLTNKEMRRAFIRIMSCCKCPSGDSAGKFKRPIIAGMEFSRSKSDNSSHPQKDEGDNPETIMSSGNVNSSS
In short: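 CHO cells stably overexpressing human S1PR1, starved 1 h in 0.1% FAF BSA medium, then Fluo 8 dye-loaded. Compound added, then after 15 min at 37 °C, S1P-evoked Ca2+ flux recorded. Maximal signal/background ratio normalized to controls as % inhibition; IC50 from four-parameter logistic fit.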

S1PR2 = molecular target: T2, S1PR2 (Homo sapiens, UniProt O95136); assay: S1PR2 binding assay (competition with radioactively labeled S1P, SpA); conditions: membranes from stable cell line over expressing S1PR2, SpA beads; read-out: S1P2 EC50 (nM), S1PR2 binding EC50
T2 construct: expressed in transfected cells
T2 sequence (O95136 whole entry): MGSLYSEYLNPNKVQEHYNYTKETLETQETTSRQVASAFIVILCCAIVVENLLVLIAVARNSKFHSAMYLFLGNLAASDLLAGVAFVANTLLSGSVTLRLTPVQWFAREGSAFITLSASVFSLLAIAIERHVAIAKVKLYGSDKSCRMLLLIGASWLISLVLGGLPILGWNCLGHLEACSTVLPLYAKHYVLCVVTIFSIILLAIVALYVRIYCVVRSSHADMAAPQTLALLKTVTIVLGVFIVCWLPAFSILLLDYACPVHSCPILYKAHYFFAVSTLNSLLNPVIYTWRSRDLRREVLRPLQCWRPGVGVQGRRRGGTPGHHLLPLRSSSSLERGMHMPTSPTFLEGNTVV
In short: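 Competition with [3H]S1P for membranes from a stable S1PR2-overexpressing cell line, 20 μg/well, captured on PVT-WGA SPA beads, in 20 mM Tris pH 7.5, 10 mM MgCl2, 100 mM NaCl, 0.4% fatty-acid-free BSA, 1 mM Na3VO4. 2 h at room temperature, then centrifugation and scintillation counting.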

HFL-1 cells [3] = assay: IL-8 production assay (S1P induced IL-8); type: cell-based; conditions: Homo sapiens, HFL1; S1P (1 μM) induced IL-8 in HFL-1 cells, starvation medium without HSA; read-out: IL8 EC50
In short: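 HFL-1 human fetal lung fibroblasts were starved in F12K/1% FBS, then given compound for 1 h (10-point, 1/3 dilution, 30 μM top, 0.3% DMSO final). S1P was added at 1 μM final for 16–24 h at 37 °C, and secreted IL-8 in supernatant quantified by ELISA.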

[4] = molecular target: T3, human GPCR sphingosine 1-phosphate receptor 2 (Homo sapiens, UniProt O95136); assay: S1PR2 antagonist Ca2+ flux assay; type: cell-based; conditions: antagonist mode, CHO-S1PR2 cells, S1P at EC80, Ca2+ fluorescence; read-out: S1P2 EC50 (nM), S1P2 antagonist EC50
T3 construct: host or cells: CHO
T3 sequence (O95136 whole entry): as above
In short: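 CHO cells stably expressing human S1PR2, serum-starved 1 h, Fluo8-loaded; compound-evoked Ca2+ fluorescence read 3 min (agonist mode), then after 15 min S1P at EC80 added and read 3 min (antagonist mode). Max/baseline fluorescence ratios normalised to vehicle and S1P EC100 or EC50 controls; EC50 derived.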

[5] = molecular target: T4, human GPCR sphingosine 1-phosphate receptor 5 (Homo sapiens, UniProt Q9H228); assay: S1PR5 selectivity Ca2+ flux assay (antagonist readout); type: cell-based; conditions: CHO cells overexpressing human S1PR5 and Gq, agonist at EC80 (20 nM), read-out: S1P5 EC50 (nM), S1P5 antagonist EC50
T4 construct: host or cells: CHO
T4 sequence (Q9H228 whole entry): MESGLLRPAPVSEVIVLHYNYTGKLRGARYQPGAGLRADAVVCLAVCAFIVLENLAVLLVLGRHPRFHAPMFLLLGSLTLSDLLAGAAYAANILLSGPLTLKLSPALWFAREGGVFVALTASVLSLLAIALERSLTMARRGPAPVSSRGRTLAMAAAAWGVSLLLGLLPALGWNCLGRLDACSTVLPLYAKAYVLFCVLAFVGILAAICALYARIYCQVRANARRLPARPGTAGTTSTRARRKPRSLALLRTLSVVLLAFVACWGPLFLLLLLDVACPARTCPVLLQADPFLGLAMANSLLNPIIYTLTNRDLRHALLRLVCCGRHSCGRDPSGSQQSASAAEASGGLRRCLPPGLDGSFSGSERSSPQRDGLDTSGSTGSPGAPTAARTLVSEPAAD
In short: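 CHO cells stably coexpressing human S1PR5 and Gq were serum-starved, Fluo 8-loaded and preincubated 15 min at 37° C with compound. They were then stimulated at EC80 with an S1PR5-specific agonist, and calcium fluorescence was recorded for 3 min. Peak/baseline ratios were normalized to controls and fitted to a four-parameter IC50 equation.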

Row | Structure (SMILES) | EC50 (HFL-1 cells [1]) [nM] | EC50 [2] [nM] | EC50 (S1PR2) [nM] | EC50 (HFL-1 cells [3]) [nM] | EC50 [4] [nM] | EC50 [5] [nM]
1 | O=c1c2ccccc2c(Cc2nc3cc(Cl)c(OC(F)(F)F)cc3[nH]2)nn1CC1CCNC1 (stereo not drawn) [Compound 57, 4-[[6-chloro-5-(trifluoromethoxy)-1H-benzimidazol-2-yl]methyl]-2-(pyrrolidin-3-ylmethyl)phthalazin-1-one] | 501 | ≥ 19800 | 457 | 552 | 163 | 19800
2 | COCCOc1cc2nc(Cc3nn(CC(=O)N4CCOCC4)c(=O)c4ccccc34)[nH]c2cc1C#N [Compound 51, 6-(2-methoxyethoxy)-2-[[3-(2-morpholino-2-oxo-ethyl)-4-oxo-phthalazin-1-yl]methyl]-3H-benzimidazole-5-carbonitrile] | 291 | ≥ 19800 | 366 | 177 | 77.3 | 19800
3 | N#Cc1cc2[nH]c(Cc3nn(C4CCN(CC(=O)O)C4)c(=O)c4ccccc34)nc2cc1OCC(F)F (stereo not drawn) [Compound 71, 2-[3-[4-[[6-cyano-5-(2,2-difluoroethoxy)-1H-benzimidazol-2-yl]methyl]-1-oxo-phthalazin-2-yl]pyrrolidin-1-yl]acetic acid] | 134 | ≥ 19800 | 357 | 156 | 356 | 19800
4 | O=c1c2ccccc2c(Cc2nc3cc(Cl)c(OC(F)(F)F)cc3[nH]2)nn1C1CC1 [Compound 25, 4-[[5-chloro-6-(trifluoromethoxy)-1H-benzimidazol-2-yl]methyl]-2-cyclopropyl-phthalazin-1-one] | 10000 | 4710 | 565 | 836 | 218 | 4790
5 | N#Cc1cc2nc(Cc3nn(CC(=O)O)c(=O)c4ccccc34)cn2cc1OCC1CC1 [Compound 79, 2-[4-[[7-cyano-6-(cyclopropylmethoxy)imidazo[1,2-a]pyridin-2-yl]methyl]-1-oxo-phthalazin-2-yl]acetic acid] | 503 | ≥ 19800 | 221 | 57.7 | 82.7 | 19800
6 | O=c1c2ccccc2c(Cc2nc3cc(Cl)c(OC(F)(F)F)cc3[nH]2)nn1C1CCNC1 (stereo not drawn) [Compound 59, 4-[[6-chloro-5-(trifluoromethoxy)-1H-benzimidazol-2-yl]methyl]-2-pyrrolidin-3-yl-phthalazin-1-one] | 180 | ≥ 19800 | 42 | 98.8 | 94.4 | 19800
7 | O=C(Cc1nn(Cc2nc3cc(OCC(F)F)c(F)cc3[nH]2)c2ccccc2c1=O)N1CCOCC1 [Compound 50, 1-[5-(2,2-Difluoro-ethoxy)-6-fluoro-1H-benzoimidazol-2-ylmethyl]-3-(2-morpholin-4-yl-2-oxo-ethyl)-1H-cinnolin-4-one] | 365 | ≥ 19800 | 267 | 246 | 195 | 19800
8 | O=c1c2ccccc2c(Cc2nc3cc(Cl)c(OCC(F)F)cc3[nH]2)nn1C1CC1 [Compound 32, 4-[[5-chloro-6-(2,2-difluoroethoxy)-1H-benzimidazol-2-yl]methyl]-2-cyclopropyl-phthalazin-1-one] | 2960 | ≥ 19800 | 245 | 95.7 | 19.3 | 6610

Continued, values first:

Row | EC50 (HFL-1 cells [1]) [nM] | EC50 [2] [nM] | EC50 (S1PR2) [nM] | EC50 (HFL-1 cells [3]) [nM] | EC50 [4] [nM] | EC50 [5] [nM] | Structure (SMILES)
9 | 353 | ≥ 19800 | 207 | 352 | 107 | 19800 | O=C(Cn1nc(Cc2nc3cc(OCC(F)F)c(F)cc3[nH]2)c2c(c1=O)CCCC2)N1CCOCC1 [Compound 179, 4-[[5-(2,2-difluoroethoxy)-6-fluoro-1H-benzimidazol-2-yl]methyl]-2-(2-morpholino-2-oxo-ethyl)-5,6,7,8-tetrahydrophthalazin-1-one]
10 | 152 | 13200 | 138 | 63.8 | 44.8 | 19800 | CC1(O)CCN(C(=O)Cn2nc(Cc3nc4cc(OCC(F)F)c(C#N)cc4[nH]3)c3ccccc3c2=O)C1 (stereo not drawn) [Compound 201, 6-(2,2-difluoroethoxy)-2-[[3-[2-(3-hydroxy-3-methyl-pyrrolidin-1-yl)-2-oxo-ethyl]-4-oxo-phthalazin-1-yl]methyl]-3H-benzimidazole-5-carbonitrile]
11 | 108 | ≥ 19800 | 154 | 47.4 | 15.6 | 19800 | N#CC1(COc2cc3[nH]c(Cc4nn(CC(=O)N5CCOCC5)c(=O)c5ccccc45)nc3cc2Cl)CC1 [Compound 161, 1-[[6-chloro-2-[[3-(2-morpholino-2-oxo-ethyl)-4-oxo-phthalazin-1-yl]methyl]-3H-benzimidazol-5-yl)oxymethyl]cyclopropanecarbonitrile]
12 | 163 | 12000 | 745 | 10.1 | 10 | 19800 | O=C(O)Cn1nc(Cn2[nH]c3cc(OCC4CC4)c(Cl)cc3c2=O)c2ccccc2c1=O [Compound 134, 2-[4-[[5-chloro-6-(cyclopropylmethoxy)-3-oxo-1H-indazol-2-yl]methyl]-1-oxo-phthalazin-2-yl]acetic acid]
13 | 61.6 | ≥ 19800 | 78.9 | 10.9 | 11.4 | 19800 | N#Cc1cc2[nH]c(Cc3nn(CC(=O)N4CCOCC4)c(=O)c4ccccc34)nc2cc1OCC(F)(F)F [Compound 175, 2-[[3-(2-morpholino-2-oxo-ethyl)-4-oxo-phthalazin-1-yl]methyl]-6-(2,2,2-trifluoroethoxy)-3H-benzimidazole-5-carbonitrile]
14 | 280 | ≥ 19900 | 23 | 29.5 | 15.3 | 6640 | O=C(Cn1nc(Cc2nc3cc(Cl)c(OC(F)(F)F)cc3[nH]2)c2c(c1=O)CCCC2)N[C@H]1CCC[C@@H]1O [Compound 146, 2-[4-[[5-chloro-6-(trifluoromethoxy)-1H-benzimidazol-2-yl]methyl]-1-oxo-5,6,7,8-tetrahydrophthalazin-2-yl]-N-[(1S,2S)-2-hydroxycyclopentyl]acetamide]
15 | 3400 | ≥ 19800 | 226 | 511 | 191 | 19800 | CC(C)(C)NC(=O)Cn1nc(Cn2cc3cc(OCC4CC4)c(Cl)cc3n2)c2ccccc2c1=O [Compound 144, N-tert-butyl-2-[4-[[6-chloro-5-(cyclopropylmethoxy)indazol-2-yl]methyl]-1-oxo-phthalazin-2-yl]acetamide]
16 | 154 | ≥ 19800 | 33.2 | 6.74 | 3.48 | 19800 | O=C(O)Cc1nn(Cc2cn3cc(OCC4CC4)c(Cl)cc3n2)c2cc(F)ccc2c1=O [Compound 101, 2-[1-[[7-chloro-6-(cyclopropylmethoxy)imidazo[1,2-a]pyridin-2-yl]methyl]-7-fluoro-4-oxo-cinnolin-3-yl]acetic acid]
17 | 694 | ≥ 19800 | 324 | 59.6 | 80 | 19800 | O=C(Cn1nc(Cc2cc3cc(Cl)c(OCC(F)F)cc3[nH]2)c2ccccc2c1=O)N1CCOCC1 [compound 11, 4-[[5-chloro-6-(2,2-difluoro-ethoxy)-1H-indol-2-yl]-methyl]-2-(2-morpholino-2-oxo-ethyl)-phthalazin-1-one]
18 | 254 | ≥ 19800 | 246 | 27.4 | 28.5 | 19800 | N#Cc1ccc2c(=O)n(CC(=O)N3CCOCC3)nc(Cc3nc4cc(OCC(F)F)c(Cl)cc4[nH]3)c2c1 [Compound 153]
